The values below come from patent US20060204460A1, “Lip gloss composition” (KOKYU ALCOHOL KOGYO CO., LTD., priority 2005, published 2006).

This data set is described as follows: Viscosity of liquid oil (E) on a Brookfield viscometer. In kind it is physicochemical. As to conditions: at 25 degrees C., No. 2 spindle, 12 rpm. The procedure:
The liquid oil having a viscosity of from 5 to 400 mPa·s at 25 degrees C., (E), is known and commonly used in cosmetics. The viscosity of the liquid oil at 25 degrees C. is preferably 8 to 350 mPa·s, and more preferably 12 to 300 mPa·s. […] The viscosity is measured on a Brookfield viscometer using No. 2 spindle at 12 rpm.
On to octyldodecyl neodecanoate, for which the Viscosity is 25 mPa·s.

The molecule diisopropyl dilinoleate showed a Viscosity of 310 mPa·s.

`CCCCCCCCCCCCCCCCOC(=O)C(CC)CCCC` (stereo not drawn) [cetyl ethylhexanoate] displayed a Viscosity of 13 mPa·s.

In turn, `CC(C)CCCC(C)CCCC(C)CCCCC(C)CCCC(C)CCCC(C)C` (stereo not drawn) [squalane] gave a Viscosity of 32 mPa·s.

`CC(C)CCCCCCCCCCCCCCCOC(=O)C(C)(C)C` [isostearyl neopentanoate] yielded a Viscosity of 15 mPa·s.

`CC(C)CCCCCCCCCCCCCCCOC(=O)CCCCCCCCCCCCCCC(C)C` [isostearyl isostearate]: the Viscosity stood at 40 mPa·s.

hexyldecyl isostearate registered a Viscosity of 34 mPa·s.

In turn, isononyl ethylhexanoate gave a Viscosity of 5 mPa·s.

Turning to octyldodecyl neopentanoate, the Viscosity amounted to 15 mPa·s.

Regarding `CCCCC(CC)C(=O)OCC(C)(C)COC(=O)C(CC)CCCC` (stereo not drawn) [neopentylglycol diethylhexanoate], the Viscosity stood at 13 mPa·s.

`CCCCCCCCCC(=O)OCC(C)(C)COC(=O)CCCCCCCCC` [neopentylglycol dicaprate] had a Viscosity of 19 mPa·s.

Molecule `CC(C)CCCCCCOC(=O)CCCCCC(C)C` [isononyl isononanoate] showed a Viscosity of 6 mPa·s.

Molecule octyldodecyl stearoyloxystearate registered a Viscosity of 90 mPa·s.

With pentaerythrityl tetraisostearate, the Viscosity was determined as 290 mPa·s.

The molecule trimethylolpropane triethylhexanoate showed a Viscosity of 52 mPa·s.

For the molecule `CC(C)CCCCCCCCCCOC(=O)CCCCCC(C)C` [isotridecyl isononanoate], the Viscosity is listed as 12 mPa·s.

trimethylolpropane triisostearate yielded a Viscosity of 180 mPa·s.

With hexyldecyl ethylhexanoate, the Viscosity was determined as 11 mPa·s.

In turn, `CCCCCCCCCCCCCCCC(=O)OC(C)C` [isopropyl palmitate] gave a Viscosity of 7 mPa·s.

triisostearine: the Viscosity is reported as 185 mPa·s.

The molecule `CCCCC(CC)C(=O)OCC(COC(=O)C(CC)CCCC)(COC(=O)C(CC)CCCC)COC(=O)C(CC)CCCC` (stereo not drawn) [pentaerythrityl tetraethylhexanoate] yielded a Viscosity of 110 mPa·s.

`CC(C)CCCCCCCCCCCCCCC(=O)OC(C)C` [isopropyl isostearate]: the Viscosity is on record as 10 mPa·s.

`CCCCC(CC)C(=O)OCC(COC(=O)C(CC)CCCC)OC(=O)C(CC)CCCC` (stereo not drawn) [triethyl hexanoin]: the Viscosity worked out at 35 mPa·s.

For ethylhexyl hydroxystearate, the Viscosity was determined as 64 mPa·s.
